Assay results taken from patent US5922718A, “Triazolones as apolipoprotein-B synthesis inhibitors” (Janssen Pharmaceutica, N.V., priority 1995, dated 1999).

test system: apolipoprotein B; assay: Apolipoprotein B (apo B) Inhibition Test; assay type: cell-based, human; settings: HepG2-cells, overnight at 37° C., radioactively labelled leucine, double immunoprecipitation; read-out: IC50 (concentration of the drug needed to reduce apoB secretion to 50% of the control)
Description: Cultured human liver cells (HepG2-cells), which synthesize and secrete low-density lipoproteins, were incubated overnight at 37° C. in a liquid medium containing radioactively labelled leucine. Thus radioactively labelled leucine was incorporated into the apolipoprotein B. The liquid medium was decanted and the apolipoprotein B was isolated by means of a double immunoprecipitation, i.e. first an apolipoprotein B-specific antibody (antibody1) was added to the liquid medium and subsequently a second antibody (antibody2) was added which binds specifically to the apoB-antibody1 -complex. The thus formed apoB-antibody1 -antibody2 complex precipitated and was isolated by centrifuge. Quantification of the amount of apolipoprotein B synthesized during the night resulted from measuring the radioactivity of the isolated complex. To measure the inhibiting activity of the test compound, that test compound was added to the liquid medium at different concentrations and the concentration of apolipoprotein B synthesized in the presence of a test compound (concentration apoB(after)) was compared to the concentration of apolipoprotein B which was synthesized in the absence of the test compound (concentration apoB(control)). For each experiment the inhibition of apolipoprotein-B formation was expressed as
% inhibition=100×(1-concentration of apoB(after)/concentration
When more experiments were carried out for the same concentration, the median value of the inhibition calculated for these experiments was calculated. IC50 -values (concentration of the drug needed to reduce apoB secretion to 50% of the control) were also computed.

Row | Compound | IC50 [nM]
1 | CCC(C)n1cnn(-c2ccc(N3CCN(c4ccc(OCC5COC(CCn6cncn6)(c6ccc(F)cc6F)O5)cc4)CC3)cc2)c1=O (stereo not shown) [Compound 26] | 300

same assay, conditions: Homo sapiens, HepG2-cells, overnight at 37° C., radioactively labelled leucine, double immunoprecipitation; read-out: IC50 (concentration of the drug needed to reduce apoB secretion to 50% of the control)

Row | Compound | IC50 [nM]
2 | CCC(C)n1cnn(-c2ccc(N3CCN(c4ccc(OC[C@H]5CO[C@](Cn6cncn6)(c6ccc(Cl)cc6Cl)O5)cc4)CC3)cc2)c1=O (stereo partly shown) [Compound 22] | 390
3 | CCCn1c(C)nn(-c2ccc(N3CCN(c4ccc(OC[C@H]5CO[C@](Cn6ccnc6)(c6ccc(Cl)cc6Cl)O5)cc4)CC3)cc2)c1=O (relative stereo) [Compound 4] | 1000
4 | CCC(C)n1cnn(-c2ccc(N3CCN(c4ccc(OC[C@H]5CO[C@](Cn6cncn6)(c6ccc(F)cc6F)O5)cc4)CC3)cc2)c1=O (stereo partly drawn) [Compound 19, cis-2-[4-[4-[4-[[2-(2,4-difluorophenyl)-2-(1H-1,2,4-triazol-1yl-methyl)-1,3-dioxolan-4-yl]methoxy]phenyl]-1-piperazinyl]phenyl]-2,4-dihydro-4-(1-methylpropyl)-3H-1,2,4-triazol-3-one] | 170
5 | CC(C)n1cnn(-c2ccc(N3CCN(c4ccc(OC[C@H]5CO[C@](Cn6cncn6)(c6cccc7ccccc67)O5)cc4)CC3)cc2)c1=O (relative stereo) [Compound 24] | 910
6 | CC(C)n1cnn(-c2ccc(N3CCN(c4ccc(OC[C@H]5CO[C@](Cn6ccnc6)(c6ccc(Cl)cc6Cl)O5)cc4)CC3)cc2)c1=O (relative stereo) [Compound 7] | 630
7 | CCC(C)n1cnn(-c2ccc(N3CCN(c4ccc(OC[C@H]5CO[C@](Cn6cncn6)(c6ccc(F)cc6)O5)cc4)CC3)cc2)c1=O (stereo partly shown) [Compound 20] | 860
8 | CC(C)n1cnn(-c2ccc(N3CCN(c4ccc(OC[C@H]5CO[C@](Cn6cccn6)(c6ccc(F)cc6F)O5)cc4)CC3)cc2)c1=O (relative stereo) [Compound 10] | 290
9 | CCC(C)n1cnn(-c2ccc(N3CCN(c4ccc(OCC5COC(CCn6cncn6)(c6ccc(Cl)cc6)O5)cc4)CC3)cc2)c1=O (stereo not shown) [Compound 27] | 270
10 | CC(C)n1cnn(-c2ccc(N3CCN(c4ccc(OC[C@H]5CO[C@](Cn6cncn6)(c6ccc(Cl)cc6Cl)O5)cc4)CC3)cc2)c1=O (relative stereo) [Compound 17] | 720
11 | CCC(C)n1cnn(-c2ccc(N3CCN(c4ccc(OCC5COC(CCn6cncn6)(c6ccc(F)cc6F)O5)cc4)CC3)cc2)c1=O (stereo not shown) [Compound 25] | 230
12 | CC(C)n1cnn(-c2ccc(N3CCN(c4ccc(OC[C@H]5CO[C@](Cn6ccnc6)(c6cccc7ccccc67)O5)cc4)CC3)cc2)c1=O (relative stereo) [Compound 9] | 560
13 | CC(C)n1cnn(-c2ccc(N3CCN(c4ccc(OC[C@H]5CO[C@](Cn6cncn6)(c6ccc(F)cc6F)O5)cc4)CC3)cc2)c1=O (relative stereo) [Compound 23] | 340
